Measured values reported in PMC9841525, “Chemical Blockage of the Mitochondrial Rhomboid Protease PARL by Novel Ketoamide Inhibitors Reveals Its Role in PINK1/Parkin-Dependent Mitophagy” (Journal of Medicinal Chemistry, 2022).
*1 amine or outer side, *2 acyl side, *3 side chain or, on linkers, in order; H or OH if unused. Where a SMILES comes first, the peptide text is derived from it. [ ]: non-standard residue; d: D form. The star is where a group is joined. NH(4-phenylbutyl) = c1ccc(CCCCN*)cc1; X1 = C[C@H](N[*:1])C(=O)C(=O)[*:2]

Assays:
[1] = biological target: T1, PARL (Homo sapiens, UniProt Q9H300); assay: PARL inhibition assay in cells: cleavage of overexpressed PGAM5-Myc by tetracycline-induced PARL-FLAG, immunoblot; assay type: cell-based; parameters: expressed in transfected cells; host or cells: Flp-In HEK293 T-REx PARL knockout cells
T1 sequence (Q9H300 53-379): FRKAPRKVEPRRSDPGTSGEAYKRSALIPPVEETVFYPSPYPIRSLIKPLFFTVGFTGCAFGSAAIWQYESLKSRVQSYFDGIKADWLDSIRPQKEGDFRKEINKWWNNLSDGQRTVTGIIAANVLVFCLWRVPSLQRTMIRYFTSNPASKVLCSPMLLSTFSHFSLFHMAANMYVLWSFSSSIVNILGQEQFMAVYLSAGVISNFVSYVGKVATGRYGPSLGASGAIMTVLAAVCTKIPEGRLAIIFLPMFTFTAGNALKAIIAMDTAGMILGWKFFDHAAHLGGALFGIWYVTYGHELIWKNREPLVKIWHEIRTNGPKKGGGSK
Procedure: PARL inhibition assays in cells were carried out in Flp-In HEK293 T-REx PARL knockout cells stably transfected with tetracycline inducible PARL-FLAG grown in DMEM (Gibco) supplemented with 10% (v/v) tetracycline-free fetal bovine serum (Clontech). For the inhibition assay, 0.7 × 10^6 cells were seeded per well of a 6-well plate, and the next day transfected with 5 μg of human PGAM5-Myc in pcDNA and 15 μg of branched polyethylenimine (Polysciences) per well. Four hours after transfection, the PARL expression was induced by adding tetracycline to 1 μg/mL. Eight hours after transfection, the inhibitors were added to each well in different concentrations in serum-free DMEM with 1% DMSO.
For immunoblot analysis of the effects of PARL inhibitors on PGAM5 cleavage, after overnight incubation with inhibitors, cells from each well were harvested in 1× SDS sample buffer containing 20 mM MgCl2 and Pierce universal nuclease (250 U/mL, Thermo Scientific) and heated to 65 °C for 10 min. Loading volumes for SDS-PAGE were adjusted by measuring total protein concentration in the lysates with Pierce 660 nm Protein Assay Reagent and Ionic Detergent Compatibility Reagent for Pierce 660 nm Protein Assay Reagent (Thermo Scientific). Samples were resolved by SDS-PAGE using a 12% polyacrylamide gel (Biorad) and electrotransferred onto an Immobilon PVDF membrane (Merck Millipore). Blots were blocked using casein blocker (Thermo Scientific) and hPGAM5 was labeled by rabbit anti-Myc antibody (Cell Signaling Technology, cat. #2278, dilution 1:1000) at 4 °C overnight. Blots were washed three times with TBS-T and incubated with IRDye 800 CW donkey anti-rabbit antibody (Invitrogen, cat. #SA5-10044, dilution 1:10,000) at room temperature for 2 h. Membranes were then again washed three times with TBS-T and one time with TBS. Fluorescence emission at […] of dried membranes was scanned on Odyssey CLx (LI-COR). Cleavage efficiency and inhibition were analyzed as described[23] using Image Studio Lite (LI-COR), Excel (Microsoft) and GraphPad Prism 9 (GraphPad Software, Inc.).

[2] = biological target: T1, PARL; assay: CCCP-induced PGAM5-FLAG cleavage by endogenous PARL in HEK293T cells, immunoblot; assay type: cell-based; parameters: expressed in transfected cells; host or cells: Flp-In HEK293 T-REx PARL knockout cells; conditions: 3 h, mean ± SEM of four experiments, read-out: Apparent IC50, CCCP-induced PGAM5 cleavage
Procedure: Inducible stable Flp-In HEK293 T-REx cells expressing PINK1 were described previously.[33] HEK293 T-REx PINK1 and HEK293T cells were grown in DMEM (Gibco) supplemented with 10% (v/v) fetal bovine serum (ThermoFisher), 1% (v/v) GlutaMAX (Gibco), 1% (v/v) sodium pyruvate (Gibco), 125 μg/mL hygromycin (Invitrogen), and 10 μg/mL blasticidin (Gibco) or DMEM supplemented with 10% (v/v) fetal bovine serum, respectively, at 37 °C in 5% (v/v) CO2. For microscopy, cells were seeded on poly-L-lysine (Sigma)-coated slides. Transient plasmid transfections were performed using 25 kDa linear polyethylenimine (Polysciences). Plasmid (100 ng) encoding HA-Parkin-IRES-GFP, mito-mCherry or Parkin-mEGFP, or 500 ng plasmid encoding PGAM5-FLAG were used per 6-well. Total transfected DNA was 2 μg/well. For siRNA transfection, 2 × 10^5 cells were seeded per 6-well and on the next day transfected with 20 nM siRNA-oligonucleotide using lipofectamine RNAiMAX (ThermoFisher). Cells were analyzed 27 h post-transfection or five days post-siRNA-transfection. HEK293 T-REx PINK1 cells were induced with 0.3 μg/mL doxycycline for 24 h before further processing. […] For quantification, ImageJ was used (http://rsb.info.nih.gov/ij/). Immunoblots shown are representative of at least three independent experiments and were evaluated using Excel and GraphPad Prism 9 (GraphPad Software, Inc.).

IC50 ([1]; Flp-In HEK293 T-REx PARL KO cells with inducible PARL-FLAG, PGAM5-Myc, mean ± SEM of four or three experiments, read-out: Apparent IC50, PGAM5 cleavage by overexpressed PARL): 0.41 µM
Fold better than compound 6 in cells ([1]; ratio of apparent IC50 values, compound 5 vs compound 6): about 8 fold
IC50 [2]: 0.15 µM
Structure (SMILES): CC(=O)N[C@@H](C)C(=O)N[C@H](C(=O)N[C@@H](Cc1ccccc1)C(=O)N[C@@H](CC(C)C)C(=O)N[C@@H](C)C(=O)C(=O)NCCCCc1ccccc1)C(C)C [compound 5] (Ac-AVFL[X1]-{NH(4-phenylbutyl)})
